{"source": "patent US5538876A", "about": "“Stabilization of carboxyl esterase” (Gist-brocades, N.V., priority 1989, dated 1996)"}
{"biological_target": "carboxyl esterase (Bacillus subtilis, UniProt Q59248)", "assay": "Inactivation of carboxyl esterase by compounds", "type": "biochemical, Bacillus subtilis Thai 1-8", "details": "reaction conditions, commercially interesting concentrations", "protocol": "The esterase as such is stable at pH=9 and T=40° C. (with and without Tween 80 (TM)) for several hours."}
{"smiles": "Oc1ccccc1", "note": "[phenol]", "inactivation of carboxyl esterase by the compound (in words)": "inactivate the enzyme"}
{"smiles": "Oc1ccc2ccccc2c1", "note": "[2-naphthol]", "inactivation of carboxyl esterase by the compound (in words)": "inactivate the enzyme"}
{"smiles": "O=C(O)COc1ccc2ccccc2c1", "note": "[2-naphthoxy acetic acid]", "inactivation of carboxyl esterase by the compound (in words)": "inactivate the enzyme"}
{"smiles": "CC(C)Cc1ccc(C(C)C(=O)O)cc1", "note": "(stereo not drawn) [ibuprofen, reference compound]", "inactivation of carboxyl esterase by the compound (in words)": "inactivate the enzyme"}
{"smiles": "CC(Oc1ccc(Oc2ccc(Cl)cc2Cl)cc1)C(=O)O", "note": "(stereo not drawn) [diclofop]", "inactivation of carboxyl esterase by the compound (in words)": "will inactivate the enzyme"}
{"biological_target": "T1, carboxyl esterase (Bacillus subtilis, UniProt Q59248)", "T1 construct": "document's preparation is from B. subtilis 1-85/pNAPT-7 (cloned Thai I-8 gene)", "T1 sequence (Q59248 1-300)": "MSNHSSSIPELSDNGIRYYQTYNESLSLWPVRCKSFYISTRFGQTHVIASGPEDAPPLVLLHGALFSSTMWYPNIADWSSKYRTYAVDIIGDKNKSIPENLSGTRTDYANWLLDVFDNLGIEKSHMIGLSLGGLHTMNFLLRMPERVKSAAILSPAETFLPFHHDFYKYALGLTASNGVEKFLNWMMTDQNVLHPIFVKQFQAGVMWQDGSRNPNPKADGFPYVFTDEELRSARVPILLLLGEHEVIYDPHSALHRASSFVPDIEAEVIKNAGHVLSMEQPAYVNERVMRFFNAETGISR", "assay": "Effect of chemical modifier on carboxyl esterase stability", "type": "biochemical", "details": "used as chemical group to modify the enzyme", "description": "In this respect it is to be noticed that only small and not too hydrophilic chemical groups can be used to modify the enzyme."}
{"smiles": "O=Cc1ccccc1", "note": "[Benzaldehyde]", "effect on enzyme stability (in words)": "does not have a positive effect on enzyme stability"}
